Reference: ChEMBL document CHEMBL1150943, “Three dolabellanes and a macrolide from the sponge Dysidea sp. from Palau” (J Nat Prod, 1998)

Tests used:
HCT-116 = assay: Cytotoxicity against human HCT116 cells after 72 hrs by MTS assay; assay type: functional, cell-based; conditions: HCT-116, 72 h
A2780 = assay: Cytotoxicity against human A2780 cells after 72 hrs by MTS assay; assay type: functional, cell-based; conditions: A2780, 72 h

Compound	IC50 (HCT-116)	IC50 (A2780)
C=C(CCCC(O)CC(C)O)C[C@H]1CC(=C)C[C@@H](O)C/C(C)=C/[C@H](O)CCCC(=O)O1 (stereo not given in full) [ARENOLIDE]	21 µM	9.8 µM
CC(=O)O[C@H]1C/C(C)=C/C(=O)C[C@@H](C)/C=C/[C@@]2(C)CC[C@@H](C(C)(C)OC(C)=O)[C@H]12 (relative stereo)	80 µM	42 µM
CC(=O)O[C@H]1/C=C(/C)CC(=O)C[C@@H](C)/C=C/[C@@]2(C)CC[C@@H](C(C)(C)OC(C)=O)[C@H]12 (relative stereo)		25 µM
